Results reported in patent US10953027B2, “Active agents and methods of their use for the treatment of metabolic disorders and nonalcoholic fatty liver disease” (Flagship Pioneering Innovations V, Inc., priority 2018, dated 2021).

Key:
AhR = AhR activation in Caco-2 cells through CYP1A1 mRNA expression
Method: Caco-2 cells from American Type Culture Collection (ATCC) were plated in a sterile tissue culture treated 96-well plate (ThermoFisher) at […] per well, and grown overnight at 37° C., 5% CO2 in DMEM complete (Gibco) in order to achieve confluence. After the incubation medium was aspirated from the Caco-2 monolayers, tissues were then washed with 200 μL of warmed PBS solution, and subsequently 190 μL of pre-warmed growth medium was added to each well. Compounds of interest were diluted at a 20× concentration in growth medium containing 2% DMSO, and 10 μL of compound solutions were added to respective wells in triplicate. Compounds where incubated overnight at 37° C., 5% CO2. 2-(1′H-indole-3′-carbonyl)-thiazole-4-carboxylic acid methyl ester (ITE) was used as the positive control for AhR activation at 1 and 100 μM concentrations. At the end of the incubation, medium was aspirated off of the Caco-2 cells, and washed with 100 μL of cold PBS solution. RNA was extracted via the TaqMan™ Gene Expression Cells-to-CT™ Kit (ThermoFisher) according to the manufacturers protocol. The QuantStudio 6 Flex (Applied Biosciences) was used to analyze mRNA levels of CYP1A1 using GAPDH as the endogenous control. TaqMan™ probe sets for both genes were acquired from ThermoFisher. Samples were run in triplicate and data was analyzed using the QuantStudio software and reported as linear (Table 1) and log 2(ΔΔCT) values. Statistical analysis was performed using a two-tailed t-test comparing CYP1A1 levels in the presence of each individual compound to the vehicle negative control.

Mouse 3T3-L1 cells = assay: Mouse adipocyte lipolysis assay; assay type: cell-based; conditions: 24 hours
Method: Once the cells became confluent, they were seeded into a tissue culture treated 96 well plate. […] After 14 days of differentiation, cells were treated with compounds of interest. After 24 hours post-treatment, the cell viability was assessed using CellTiter-Glo Luminescent Cell Viability Assay from Promega, and lipolysis was determined using Lipolysis Assay Kit from ZenBio.

[1] = test system: Primary human subcutaneous adipocytes; assay: Glucose uptake in human subcutaneous adipocytes, insulin sensitive model; assay type: cell-based
Method: Primary human subcutaneous adipocytes (Zen Bio, Research Triangle Park, N.C.) were differentiated for two weeks prior to treatment. Cells were treated with indicated compounds diluted in (dimethyl-sulfoxide) DMSO in serum free medium for 24 hours in triplicate. After 24 hours, media was exchanged for assay buffer and the compounds were added again but in the presence of approximately 1 nM insulin. Glucose uptake was initiated with the addition of a cocktail containing 2-deoxyglucose and ^3H-2-deoxyglucose and allowed to incubate for 2 hours. Cells were washed, lysed and glucose uptake was measured as counts per well. As an assay control, 100 nM of insulin was used during the 2 hours of glucose uptake. […] Statistical changes in glucose uptake were determined by way ANOVA and compared to DMSO.

naïve CD4+ T cells = assay: Human regulatory T cell differentiation assay; assay type: cell-based; conditions: 6 days
Summary of the method: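 Naïve CD4+ T cells from healthy-donor PBMCs cultured 6 days in OpTmizer medium with 5 ng/ml TGF-β, 100 U/ml IL-2 and CD3/CD28/CD2 activator, with or without compound. Tregs (live CD4+CD3+CD25+FOXP3+, lineage-negative) measured by flow cytometry and expressed as % of total CD4+ T cells.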

Caco-2 colonocytes = assay: Human Caco-2 barrier integrity assay (TEER); assay type: cell-based; conditions: 48 hours
Method: Caco-2 colonocytes were maintained at 37° C. and 5% CO2 in Dulbecco's Modified Eagle Medium (DMEM) and supplemented with 10% FBS, 1% NEAA, 1% penicillin-streptomycin. At 70-80% confluency, cells were trypsinized and seeded in 0.4 cm^2 transwell collagen I coated membranes with supplemented DMEM in both apical and basolateral compartments. Cells were seeded at a density of 200,000 cells per well and maintained for 10 days to form a polarized barrier with a TransEpithelial Electrial Resistance (TEER) reading above 1000Ω. On the first day of the assay, initial TEER readings were taken and cytokines were added to the basolateral media (50 ng/mL TNFα, 25 ng/mL IFNγ and 10 ng/mL IL-1β) to reduce barrier integrity while compounds diluted in (dimethylsulfoxide) DMSO were added to the apical media in triplicate. After 48 hours, TEER readings were taken again and viability was measured by CellTiter 96® AQueous One Solution Cell Proliferation Assay (Promega). The percent change in TEER over the 48 hours was determined and normalized to the 0.1% DMSO control (Table 6).

Mouse myocyte = Mouse myocyte lipolysis assay; assay type: cell-based
[2] = test system: Primary human subcutaneous adipocytes; assay: Glucose uptake in human subcutaneous adipocytes, insulin resistant model; assay type: cell-based
Method: As described above, primary human subcutaneous adipocytes were differentiated for two weeks prior to treatment. To induce an insulin resistant state, cells were treated in serum free Dulbecco's Modified Eagle Medium (high glucose) and […] for 24 hours. Cells were simultaneously treated with compounds diluted in DMSO for 24 hours. As described above, after 24 hours, media was exchanged for assay buffer and the compounds were added again but in the presence of approximately 1 nM insulin. Cells were washed and lysed after 2 hours and glucose uptake was measured. […] Statistical changes in glucose uptake were determined by way ANOVA and compared to DMSO.

DIO-NASH mice = assay: DIO animal model of NAFLD/NASH (Example 15); assay type: in vivo; conditions: 0.03% in AMLN diet, vs DIO-NASH vehicle
Method: The effect of 8 weeks of treatment for the indicated compounds on metabolic liver disease in pre-biopsied, 43-week old male DIO-NASH mice was evaluated (12 animals per group). Male C57BL/6JRj mice were fed 40% fat (18% trans-fat), 40% carbohydrate (20% fructose), and 2% Cholesterol (AMLN) diet for 38 weeks. All mice entering the experiment were pre-biopsied stratified based on liver biopsy (only animals with fibrosis stage ≥1 and steatosis score ≥2 were included). Animals were randomized into groups based on Col1a1 immunostaining. Mice were treated for a total of 8 weeks of dosing (drugs in diet, ad lib). […] Elafibranor was supplied by the vendor. Body weight was measured daily for the entire study period. Food intake was monitored daily for first 14 days and then twice a week until study end. Day 28 collection of tail vein blood/serum and feces. Terminal plasma was collected for biomarker determination of liver transaminases (ALT, AST), triglyceride and cholesterol. Terminal liver was removed, weighed, and sampled for 1) FFPE (histology), 2) frozen (biochemistry and nucleic acid). Liver biopsy histology: pre- and post-treatment NAFLD Activity Score (HE) including Fibrosis Stage (PSR), 2) post-treatment steatosis (HE), 3) post-treatment lipid-droplet #+size (HE), 4) post-treatment Galectin-3 (IHC), 5) pre- and post-treatment Collagen 1a1 (IHC), 6) post-treatment α-SMA (IHC). […]

Structure (SMILES)	Average CYP1A1 mRNA levels (AhR; Conc. 0.1 μM)	Average CYP1A1 mRNA levels (AhR; Conc. 1.0 μM)	Lipolysis Free Fatty Acids % DMSO (Mouse 3T3-L1 cells; 100 nM)	Lipolysis Glycerol % change (Mouse 3T3-L1 cells; 100 nM)	Lipolysis Free Fatty Acids % DMSO (Mouse 3T3-L1 cells; 1 μM)	Lipolysis Glycerol % change (Mouse 3T3-L1 cells; 1 μM)	Insulin Sensitive % DMSO (glucose uptake) ([1]; 100 nM)	Insulin Sensitive % DMSO (glucose uptake) ([1]; 10 μM)	Cell viability % DMSO (naïve CD4+ T cells; 100 nM)	Treg induction % DMSO (naïve CD4+ T cells; 100 nM)	Cell viability % DMSO (naïve CD4+ T cells; 1 uM)	Treg induction % DMSO (naïve CD4+ T cells; 1 uM)	% Change in TEER from DMSO (Caco-2 colonocytes; 100 nM + cytokines)	% Change in TEER from DMSO (Caco-2 colonocytes; 1 μM + cytokines)	Free glycerol % DMSO (Mouse myocyte; 100 nM)	Free glycerol % DMSO (Mouse myocyte; 1 μM)	Insulin Resistant % DMSO (glucose uptake) ([2]; 100 nM)	Insulin Resistant % DMSO (glucose uptake) ([2]; 10 μM)	liver fibrosis, Picro Sirius red (FIG. 49B) (DIO-NASH mice)	liver morphology: lipid vacuole size (FIG. 48B) (DIO-NASH mice)
O=C(O[C@@H]1Cc2c(O)cc(O)cc2O[C@@H]1c1cc(O)c(O)c(O)c1)c1cc(O)c(O)c(O)c1 [EGCG, epigallocatechin gallate]	− (− = +2-fold Vehicle)	− (− = +2-fold Vehicle)	++ (50> ≤70%: ++)	+ (70%> ≤90%: +)	++ (50> ≤70%: ++)	+ (70%> ≤90%: +)	= (50%> ≤110%: =)	= (50%> ≤110%: =)	= (90%≥ ≤110%: =)	= (90%≥ ≤110%: =)	= (90%≥ ≤110%: =)	= (90%≥ ≤110%: =)	− (≤125%: −)	− (≤125%: −)	+ (70%> <90%: +)	+ (70%> <90%: +)	+ (110%> ≤140%: +)	= (50%> ≤110%: =)	–	–
CSc1ccc(C(=O)/C=C/c2cc(C)c(OC(C)(C)C(=O)O)c(C)c2)cc1 [Elafibranor]	–	–	–	–	–	–	–	–	–	–	–	–	–	–	–	–	–	–	the fibrosis is finer	the vacuoles are smaller
